Assay results from patent US7935723B2, “Use of organic compounds” (Novartis Pharma AG, priority 2004, dated 2011).

Key:
[1] = test system: patients with Type 2 diabetes; test: Clinical study (12-week core + 40-week extension): HbA1c in patients with Type 2 diabetes on metformin; type: in vivo, human; conditions: over one year
Protocol: This is a 40-week extension to core study, a 12-week randomized, parallel group, multi-center, placebo-controlled trial in patients with Type 2 diabetes who are already receiving metformin at a stable dosage of 1500-3000 mg daily. Patients treated with placebo, LAF237 50 mg OD (omnia die/once a day) in addition to metformin during the core study and maintained their treatment regimen in the extension. […] All patients are randomized to receive either placebo or LAF237 (50 mg) once dally for 52 weeks in addition to metformin at an unchanged dosage. During the 4-week run-in period, all patients receive LAF237 placebo tablets and are assessed for inclusion in the study. Patients meeting the inclusion criteria at the Baseline visit receives randomized treatment once daily for 52 weeks. The total study duration for each patient is 56 weeks. Throughout the study, patients are required to maintain their prior diet and exercise habits and to continue to take metformin at an unchanged dosage. […] This is measured by using Tosoh ion exchange High Performance Liquid Chromotography (HPLC). Primus Affinity HPLC is used as a back-up method if hemoglobin variants or hemoglobin degradation peaks are observed. The primary efficacy variable is change from baseline in HbA1c at the end of the study. […]

[2] = test system: patients with Type 2 diabetes; test: Clinical study: safety and tolerability, study completion; type: in vivo, human; conditions: 52 weeks, in combination with metformin
Excerpt: Safety assessments consist of monitoring and recording all non-serious and serious adverse events (SAE), the regular monitoring of hematology, blood chemistry and urinalysis values, regular measurement of vital signs, the performance of physical examinations and body weight measurements. The assessment of safety is based mainly on the frequency of adverse events and on the number of laboratory values that fall outside of pre-determined ranges. Other safety data (e.g. vital signs) will be considered as appropriate.

With `N#C[C@@H]1CCCN1C(=O)CNC12CC3CC(CC(O)(C3)C1)C2` [LAF237, (S)-1-[(3-hydroxy-1-adamantyl)amino]acetyl-2-cyano-pyrrolidine] the “course of HbA1c levels (in words)” value [1] was “decreased significantly” and the tolerability [2] was “well tolerated”.
